Data reported in ChEMBL document CHEMBL5729174, “Substituted benzofuran, benzopyrrole, benzothiophene, and structurally related complement inhibitors” (2022).

These compounds were tested against Complement factor D (Homo sapiens, UniProt P00746) (assay: Factor D Esterolytic Assay: An established esterolytic assay for the measurement of Factor D activity and inhibition of Factor D activity was used (Kam, C. M.; McRae, B. J.; Harper, J. W.; Niemann, M. A.; Volanakis, J. E.; Powers, J. C. Human complement proteins D, C2, and B Active site mapping with peptide thioester substrates. J Biol. Chem. 1987, 262, 3444-3451). For this assay Z-Lys-SBzl, 1.29 mM (Kim, S.; Narayana, S. V. L; Volanakis, J. E. Mutational analysis of the substrate binding site of human complement Factor D. Biochemistry. 1994, 33, 14393-14399.) was used as the substrate for Factor D ([…]). Hydrolysis of this compound by Factor D liberated a free sulfhydryl group which is then reacted with 5,5′-dithiobis(2nitrobenzoic acid) producing an intense yellow color (Habeeb, A. F. S. A. Reaction of protein sulfhydryl groups with Ellman's Reagent. Methods in Enzymol. 1976, 25, 457-464). The assays were performed in 96 well microtiter plates and rates of hydrolysis were monitored at 405 nm on a Biotek Synergy H1 plate reader. Hydrolysis rates were reported as change in mOD/min. The assay was conducted in 100 mM HEPES, 500 mM NaCl, pH 7.5 containing 10% DMSO in a final volume of 50 μL per well.).
Complement factor D, sequence (P00746 whole entry): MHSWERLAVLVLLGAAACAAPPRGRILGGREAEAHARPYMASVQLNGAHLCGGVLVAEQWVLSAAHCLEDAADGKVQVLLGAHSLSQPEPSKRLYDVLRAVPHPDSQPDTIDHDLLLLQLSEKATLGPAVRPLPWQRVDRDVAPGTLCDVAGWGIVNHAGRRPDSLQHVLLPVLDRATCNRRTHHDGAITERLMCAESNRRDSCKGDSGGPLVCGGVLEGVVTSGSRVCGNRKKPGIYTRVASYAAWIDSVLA

IC50 [nM] | SMILES
< 1000 | CS(=O)(=O)n1ccc2c(-c3ccnc(CN)c3F)cc(COc3ccccc3CC(=O)O)cc21
< 1000 | NCc1nccc(-c2cc(COc3ccccc3CC(=O)O)cc3c2ccn3S(=O)(=O)C2CC2)c1F
< 1000 | NCc1cccc(-c2cc(COc3ccc(F)cc3CC(=O)O)cc3ccoc23)c1F
< 1000 | NCc1cccc(-c2cc(COc3ccccc3CC(=O)O)cc3cc[nH]c23)c1
